Experimental data reported in ChEMBL document CHEMBL4680276, “Structure-Activity Relationships of Daptomycin Lipopeptides” (2020).
In brackets after ≈: the same amount, converted by molar mass.

Columns and labels:
Format in all cases: functional
Bacillus subtilis [1] = assay: Antibacterial activity against Bacillus subtilis PY79 incubated for 18 hrs in presence of 73.6 mg/L Ca2+ by visual method
Staphylococcus aureus = assay: Antibacterial activity against Staphylococcus aureus ATCC 29213 incubated for 12 hrs in presence of 1.25 mM Ca2+ by broth microdilution method
Bacillus subtilis [2] = assay: Antibacterial activity against Bacillus subtilis ATCC1046 in presence of 1.25 mM Ca2+ by serial dilution method; details: time 18 hrs
[3] = Antibacterial activity against Streptomyces sp. WAC4713 measured up to 55 hrs; details: Streptomyces sp. WAC4713, 55 h; time hrs <=55

Structure (SMILES) | MIC90 (Bacillus subtilis [1]) | further results
CCCCCCCCCC(=O)N[C@@H](Cc1c[nH]c2ccccc12)C(=O)N[C@H](CC(N)=O)C(=O)N[C@@H](CC(=O)O)C(=O)N[C@@H]1C(=O)NCC(=O)N[C@@H](CCCCN)C(=O)N[C@@H](CC(=O)O)C(=O)N[C@H](C)C(=O)N[C@@H](CC(=O)O)C(=O)NCC(=O)N[C@H](CO)C(=O)N[C@@H](CCC(=O)O)C(=O)N[C@@H](CC(=O)c2ccccc2N)C(=O)O[C@@H]1C | – | MIC (Staphylococcus aureus): 64 µg/mL
CCCCCCCCCC(=O)N[C@@H](Cc1c[nH]c2ccccc12)C(=O)N[C@H](CC(N)=O)C(=O)N[C@@H](CC(N)=O)C(=O)N[C@@H]1C(=O)NCC(=O)N[C@@H](CCCCN)C(=O)N[C@@H](CC(=O)O)C(=O)N[C@H](C)C(=O)N[C@@H](CC(=O)O)C(=O)NCC(=O)N[C@H](CO)C(=O)N[C@@H](CCC(=O)O)C(=O)N[C@@H](Cc2c[nH]c3ccccc23)C(=O)O[C@@H]1C | – | MIC (Bacillus subtilis [2]): 1.5 µg/mL
CCCCCCCCCC(=O)N[C@@H](Cc1c[nH]c2ccccc12)C(=O)N[C@H](CCC(=O)O)C(=O)N[C@@H](CC(N)=O)C(=O)N[C@H]1COC(=O)[C@H]([C@@H](C)CC)NC(=O)[C@H](CCC(=O)O)NC(=O)[C@@H](CC(N)=O)NC(=O)CNC(=O)[C@H](CC(=O)O)NC(=O)[C@@H](CCCCN)NC(=O)[C@H](CC(=O)O)NC(=O)[C@H](C)NC(=O)CN(C)C1=O | 25 µg/mL | –
CCCCCCCCCC(=O)N[C@@H](Cc1c[nH]c2ccccc12)C(=O)N[C@H](CCC(=O)O)C(=O)N[C@@H](CC(N)=O)C(=O)N[C@@H]1C(=O)N(C)CC(=O)N[C@@H](C)C(=O)N[C@@H](CC(=O)O)C(=O)N[C@H](CCCCN)C(=O)N[C@@H](CC(=O)O)C(=O)NCC(=O)N[C@H](CC(N)=O)C(=O)N[C@@H](CCC(=O)O)C(=O)N[C@@H]([C@@H](C)CC)C(=O)O[C@@H]1C | 25 µg/mL | –

Further compounds by falling MIC90 (Bacillus subtilis [1]), results first:

MIC90 (Bacillus subtilis [1]) | Structure (SMILES) | further results
20 µg/mL | CCCCCCCCCC(=O)N[C@@H](Cc1c[nH]c2ccccc12)C(=O)N[C@H](CC(=O)O)C(=O)N[C@@H](CC(N)=O)C(=O)N[C@@H]1C(=O)N(C)CC(=O)N[C@@H](C)C(=O)N[C@@H](CC(=O)O)C(=O)N[C@H](C)C(=O)N[C@@H](CC(=O)O)C(=O)NCC(=O)N[C@H](CO)C(=O)N[C@@H](CCC(=O)O)C(=O)N[C@@H](CC(=O)c2ccccc2N)C(=O)O[C@@H]1C | –
20 µg/mL | CCCCCCCCCC(=O)N[C@@H](Cc1c[nH]c2ccccc12)C(=O)N[C@H](CC(=O)O)C(=O)N[C@@H](CC(N)=O)C(=O)N[C@@H]1C(=O)N(C)CC(=O)N[C@@H](CCCN)C(=O)N[C@@H](CC(=O)O)C(=O)N[C@H](C)C(=O)N[C@@H](CC(=O)O)C(=O)NCC(=O)N[C@H](CO)C(=O)N[C@@H](CCC(=O)O)C(=O)N[C@@H](CC(=O)c2ccccc2N)C(=O)O[C@@H]1C | –
11 µg/mL | CCCCCCCCCC(=O)N[C@@H](Cc1c[nH]c2ccccc12)C(=O)N[C@@H](CC(N)=O)C(=O)N[C@@H](CC(=O)O)C(=O)N[C@@H]1C(=O)NCC(=O)N[C@@H](CCCN)C(=O)N[C@@H](CC(=O)O)C(=O)N[C@H](C)C(=O)N[C@@H](CC(=O)O)C(=O)NCC(=O)N[C@H](CO)C(=O)N[C@H](CCC(=O)O)C(=O)N[C@@H](CC(=O)c2ccccc2N)C(=O)O[C@@H]1C | –
2 µg/mL | CCCCCCCCCC(=O)N[C@@H](Cc1c[nH]c2ccccc12)C(=O)N[C@H](CC(N)=O)C(=O)N[C@@H](CC(=O)O)C(=O)N[C@@H]1C(=O)NCC(=O)N[C@@H](CCCN)C(=O)N[C@@H](CC(=O)O)C(=O)N[C@H](C)C(=O)N[C@@H](CC(=O)O)C(=O)NCC(=O)N[C@H](CO)C(=O)N[C@@H]([C@H](C)CC(=O)O)C(=O)N[C@@H](CC(=O)c2ccccc2N)C(=O)O[C@@H]1C | MIC [3]: 512 µg/mL (≈ 316 µM)
